Measurements from patent US4725583A, “Functionalized peptidylaminoalcohols” (Abbott Laboratories, priority 1986, dated 1988).
pIC50: −log10 of the molar value.

Molecular target: T1, human renal renin (Homo sapiens, UniProt P00797)
T1 construct: human renal renin, free from acid proteolytic activity; from tissue
T1 sequence (P00797 67-406): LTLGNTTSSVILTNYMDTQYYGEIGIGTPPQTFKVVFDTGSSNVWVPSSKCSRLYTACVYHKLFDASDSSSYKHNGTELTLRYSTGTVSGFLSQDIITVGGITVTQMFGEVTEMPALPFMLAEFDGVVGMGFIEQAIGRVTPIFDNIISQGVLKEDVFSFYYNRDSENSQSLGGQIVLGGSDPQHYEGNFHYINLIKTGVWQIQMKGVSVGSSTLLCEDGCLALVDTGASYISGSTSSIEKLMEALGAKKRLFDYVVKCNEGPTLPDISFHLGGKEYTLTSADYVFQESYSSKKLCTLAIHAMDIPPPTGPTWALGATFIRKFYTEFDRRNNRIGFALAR
Assay: In vitro inhibition of human renal renin (angiotensin I formation measured by radioimmunoassay)
Type: biochemical
Conditions: human renal renin with human renin substrate (angiotensinogen), 37° C., pH 6.0

Q: With `CC(C)C[C@H](NC(=O)[C@H](C)NC(=O)[C@H](Cc1ccccc1)NC(=O)OC(C)(C)C)C(O)C=O` (stereo partly drawn) [Example 3, Boc-Phe-Ala Amide of (3S)-Amino-2-hydroxy-5-methylhexanal] as the compound, how does the pIC50 read?
A: 8.00

Q: With `C[C@H](NC(=O)[C@H](Cc1ccccc1)NC(=O)OC(C)(C)C)C(=O)N[C@@H](CC1CCCCC1)[C@@H](O)CCl` [Example 14, Boc-Phe-Ala Amide of (2R,3S)-3-Amino-1-chloro-4-cyclohexyl-2-hydroxybutane] as the compound, how does the pIC50 read?
A: 6.40

Q: How did the pIC50 turn out when `C[C@H](NC(=O)[C@H](Cc1ccccc1)NC(=O)OC(C)(C)C)C(=O)N[C@@H](CC1CCCCC1)[C@@H](O)CBr` [Example 16, Boc-Phe-Ala Amide of (2R,3S)-3-Amino-1-bromo-4-cyclohexyl-2-hydroxybutane] was run?
A: 6.15

Q: `CC(C)CC(=O)C(O)[C@H](CC1CCCCC1)NC(=O)[C@H](Cc1cnc[nH]1)NC(=O)[C@H](Cc1ccccc1)NC(=O)OC(C)(C)C` (stereo partly drawn) [Example 19, Boc-Phe-His Amide of (2S)-Amino-1-cyclohexyl-3-hydroxy-6-methylheptan-4-one] was tested. Which pIC50 did it give?
A: 8.00
